# According to ChEMBL document CHEMBL5726922, “Chemokine CXCR1 and CXCR2 receptor antagonist compounds, and use thereof in the treatment of chemokine-mediated pathologies” (2019):
# Assays:
# [1] = molecular target: T1, C-X-C chemokine receptor type 2 (Homo sapiens, UniProt P25025); assay: (§1) J. Immunol. 170: 2904-2911).To evaluate the direct interaction of the CXCR2 or CXCR1 receptor with β-arrestin 2, a test of β-arrestin 2 recruitment for CXCR2 or CXCR1 based on complementation of the β-galactosidase enzyme (Olson K. R., Eglen R. M., Beta-galactosidase complementation: a cell-based luminescent assay platform for drug discovery. Assay Drug Dev. Technol. 2007 February; 5(1); 137-44), as established by DiscoveRx Corporation was used. Stimulation of these two cell lines with CXCL8 (10 nM) induces the recruitment of β-arrestin 2, as indicated by a significant increase in the induction factor. All the CXCR2 antagonists are tested in a dose-dependent manner and the concentration corresponding to 50% inhibition of the response is determined (IC50=concentration of half-inhibition).β-Arrestin Recruitment Test: “PathHunter HEK293-CXCR2” or “U2OS hCXCR1 β-arrestin” cells (DiscoveRx Corporation) were seeded overnight at 10 000 cells/well (384-well format) in 20 μl of Opti MEM I medium. Preincubation with the antagonist or the vehicle for 30 minutes at 37° C. and 5% CO2 was followed by 60 minutes of stimulation with CXCL8 at 37° C. and 5% CO2. The cells were then placed at room temperature for 30 minutes. The PathHunter detection reagent (DiscoveRx Corporation) was added. […]
# T1 sequence (P25025 whole entry): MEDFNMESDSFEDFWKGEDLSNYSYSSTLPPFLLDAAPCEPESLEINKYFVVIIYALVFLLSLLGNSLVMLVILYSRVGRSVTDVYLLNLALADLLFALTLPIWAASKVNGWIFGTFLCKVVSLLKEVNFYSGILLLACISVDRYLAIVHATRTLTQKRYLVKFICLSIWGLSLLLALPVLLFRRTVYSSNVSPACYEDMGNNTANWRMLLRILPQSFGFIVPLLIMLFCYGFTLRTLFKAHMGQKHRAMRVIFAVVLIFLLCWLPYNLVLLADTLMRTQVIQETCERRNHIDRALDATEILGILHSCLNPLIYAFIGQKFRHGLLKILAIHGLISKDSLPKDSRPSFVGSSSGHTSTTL
# [2] = molecular target: T2, C-X-C chemokine receptor type 1 (Homo sapiens, UniProt P25024); assay: as §1
# T2 sequence (P25024 whole entry): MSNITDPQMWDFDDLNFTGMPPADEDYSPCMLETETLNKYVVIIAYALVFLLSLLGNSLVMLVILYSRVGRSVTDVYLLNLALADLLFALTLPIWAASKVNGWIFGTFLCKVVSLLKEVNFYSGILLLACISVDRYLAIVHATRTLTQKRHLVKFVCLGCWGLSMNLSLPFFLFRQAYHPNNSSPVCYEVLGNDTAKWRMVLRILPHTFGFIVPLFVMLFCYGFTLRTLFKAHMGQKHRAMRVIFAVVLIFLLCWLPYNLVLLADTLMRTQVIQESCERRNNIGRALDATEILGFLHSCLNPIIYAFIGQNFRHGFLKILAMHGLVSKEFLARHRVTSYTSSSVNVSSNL
smiles,measurement,setting,value
CC[C@@H](Nc1c(Nc2ccc(Cl)c(S(C)(=O)=NCCN(C)C)c2O)c(=O)c1=O)c1ccc(C)o1 (some centres not stated),IC50,[1],> 20 nM
same,IC50,[2],> 200 nM
